Measurements published in ChEMBL document CHEMBL4138120, “Modification of C-seco taxoids through ring tethering and substituent replacement leading to effective agents against tumor drug resistance mediated by βIII-Tubulin and P-glycoprotein (P-gp) overexpressions” (Eur J Med Chem, 2017).

Columns and labels:
[1] = tested on: KB; experiment: Cytotoxicity against human KB cells assessed as decrease in cell viability after 48 hrs by MTT assay; format: functional, cell-based
[2] = tested on: A2780; experiment: Cytotoxicity against human A2780 cells assessed as decrease in cell viability after 48 hrs by MTT assay; format: functional, cell-based; details: A2780, 48 h
[3] = tested on: HeLa; experiment: Cytotoxicity against human HeLa cells assessed as decrease in cell viability after 48 hrs by MTT assay; format: functional, cell-based
[4] = tested on: HeLa; experiment: Cell cycle arrest in human HeLa cells assessed as concentration at which maximal accumulation at G2/M phase after 20 hrs by propidium iodide staining-based flow cytometric method; format: functional
[5] = Resistance index, ratio of IC50 for human Hela-beta3 cells to IC50 for human HeLa cells; format: functional
[6] = tested on: KB-V1; experiment: Cytotoxicity against human KBV1 cells assessed as decrease in cell viability after 48 hrs by MTT assay; format: functional, cell-based; details: KB-V1, 48 h
[7] = organism: Bos taurus; experiment: Displacement of Flutax-2 from calf brain microtubule after 20 mins by fluorescence polarization assay relative to paclitaxel
[8] = organism: Bos taurus; experiment: Induction of calf brain microtubule assembly assessed as concentration of unassembled tubulin at 25 uM incubated for 45 mins by spectrophotometric method (reference value: >20 uM)
[9] = Cytotoxicity against human Hela-beta3 cells assessed as decrease in cell viability after 48 hrs by MTT assay; format: functional, cell-based
[10] = Resistance index, ratio of IC50 for human KBV1 cells to IC50 for human KB cells; format: functional
[11] = Cell cycle arrest in human Hela-beta3 cells assessed as concentration at which maximal accumulation at G2/M phase after 20 hrs by propidium iodide staining-based flow cytometric method; format: functional
[12] = Cytotoxicity against human A2780AD cells assessed as decrease in cell viability after 48 hrs by MTT assay; format: functional, cell-based
[13] = Resistance index, ratio of IC50 for human A2780AD cells to IC50 for human A2780 cells; format: functional
[14] = Cytotoxicity against human Hela-beta3 cells assessed as decrease in cell viability after 48 hrs in presence of beta-3 tubulin siRNA by MTT assay; format: functional, cell-based
[15] = tested on: HeLa; experiment: Ratio of IC50 for human HeLa cells harboring beta-3 tubulin siRNA to IC50 for human HeLa cells; format: functional
[16] = Potency index, ratio of paclitaxel IC50 to test compound IC50 for human A2780AD cells; format: functional

Row | Compound | fold change (FC) [7] | Unassembled tubulin concentration [8] | IC50 [1] | IC50 [2] | IC50 [3] | Activity [4] | Ratio IC50 [5] | IC50 [6] | IC50 [9] | Ratio IC50 [10] | Activity [11] | IC50 [12] | Ratio IC50 [13] | IC50 [14] | Ratio IC50 [15] | Ratio IC50 [16]
1 | CC(=O)O[C@@]1([C@@H]2/C(C)=C(/O)C(=O)C3=C(C)[C@@H](OC(=O)[C@H](O)[C@@H](NC(=O)c4ccccc4)c4ccccc4)C[C@@](O)([C@H]2OC(=O)c2cccc(N=[N+]=[N-])c2)C3(C)C)CO[C@@H]1CCO | 1.18 | 3.82 µM | 5.1 nM | 1.6 nM | 1 nM | 55 nM | 209 | 5100 nM | 209 nM | 1000 | 20 nM | > 5000 nM | – | – | – | –
2 | COc1cccc(C(=O)O[C@H]2[C@H]([C@]3(OC(C)=O)CO[C@@H]3CCO)/C(C)=C(/O)C(=O)C3=C(C)[C@@H](OC(=O)[C@H](O)[C@H](CC(C)C)NC(=O)OC(C)(C)C)C[C@]2(O)C3(C)C)c1 | 1.28 | 16.6 µM | 2.9 nM | 5.1 nM | 2.1 nM | 80 nM | 33.6 | 3400 nM | 72 nM | 1172 | 25 nM | 1420 nM | 279 | – | – | –
3 | COCC[C@H]1OC[C@@]1(OC(C)=O)[C@@H]1/C(C)=C(/O)C(=O)C2=C(C)[C@@H](OC(=O)[C@H](O)[C@@H](NC(=O)c3ccccc3)c3ccccc3)C[C@@](O)([C@H]1OC(=O)c1ccccc1)C2(C)C | – | – | – | – | 30 nM | – | 7.6 | – | 226 nM | – | – | – | – | – | – | –
4 | CC(=O)O[C@@]1([C@@H]2/C(C)=C(/O)C(=O)C3=C(C)[C@@H](OC(=O)[C@H](O)[C@H](CC(C)C)NC(=O)OC(C)(C)C)C[C@@](O)([C@H]2OC(=O)c2ccccc2)C3(C)C)CO[C@@H]1CCO | 0.132 | 3.2 µM | 6.6 nM | 4.3 nM | 3.3 nM | 15 nM | 10 | 255 nM | 33 nM | 38.7 | 15 nM | 893 nM | 207 | – | – | –
5 | CC(=O)O[C@@]12CO[C@@H]1CCOCCCCCCO/C1=C(\C)[C@@H]2[C@H](OC(=O)c2ccccc2)[C@]2(O)C[C@H](OC(=O)[C@H](O)[C@@H](NC(=O)c3ccccc3)c3ccccc3)C(C)=C(C1=O)C2(C)C | 0.61 | – | – | – | 22 nM | – | 5.3 | – | 118 nM | – | – | – | – | – | – | –
6 | CC(=O)O[C@@]12CO[C@@H]1CCOC/C=C/CO/C1=C(\C)[C@@H]2[C@H](OC(=O)c2cccc(N=[N+]=[N-])c2)[C@]2(O)C[C@H](OC(=O)[C@H](O)[C@@H](NC(=O)c3ccccc3)c3ccccc3)C(C)=C(C1=O)C2(C)C | 1.15 | 2.34 µM | 15 nM | 2.8 nM | 0.7 nM | 25 nM | 64 | 94 nM | 45 nM | 6.2 | 15 nM | 32 nM | 11.4 | – | – | –
7 | CC(=O)O[C@@]1([C@@H]2/C(C)=C(/O)C(=O)C3=C(C)[C@@H](OC(=O)[C@H](O)[C@H](CC(C)C)NC(=O)OC(C)(C)C)C[C@@](O)([C@H]2OC(=O)c2cccc(N=[N+]=[N-])c2)C3(C)C)CO[C@@H]1CCO | 2.17 | 3.63 µM | 5.2 nM | 4.1 nM | 0.9 nM | 20 nM | 21 | 503 nM | 19 nM | 97 | 10 nM | 96 nM | 23.4 | – | – | –
8 | CO/C1=C(\C)[C@@H]([C@]2(OC(C)=O)CO[C@@H]2CCO)[C@H](OC(=O)c2ccccc2)[C@]2(O)C[C@H](OC(=O)[C@H](O)[C@@H](NC(=O)c3ccccc3)c3ccccc3)C(C)=C(C1=O)C2(C)C | – | – | – | – | 312 nM | – | 12.3 | – | 3840 nM | – | – | – | – | – | – | –

More lines, main results first:

Row | fold change (FC) [7] | Unassembled tubulin concentration [8] | Compound | IC50 [1] | IC50 [2] | IC50 [3] | Activity [4] | Ratio IC50 [5] | IC50 [6] | IC50 [9] | Ratio IC50 [10] | Activity [11] | IC50 [12] | Ratio IC50 [13] | IC50 [14] | Ratio IC50 [15] | Ratio IC50 [16]
9 | 0.1 | – | CC(=O)O[C@@]1([C@@H]2/C(C)=C(/O)C(=O)C3=C(C)[C@@H](OC(=O)[C@H](O)[C@@H](NC(=O)c4ccccc4)c4ccccc4)C[C@@](O)([C@H]2OC(=O)c2ccccc2)C3(C)C)CO[C@@H]1CCO | – | 282 nM | 192 nM | – | 15.6 | – | 2980 nM | – | – | > 10000 nM | >35.4 | – | – | –
10 | 1.3 | – | CC(=O)O[C@@]12CO[C@@H]1CCOCCCCCO/C1=C(\C)[C@@H]2[C@H](OC(=O)c2ccccc2)[C@]2(O)C[C@H](OC(=O)[C@H](O)[C@@H](NC(=O)c3ccccc3)c3ccccc3)C(C)=C(C1=O)C2(C)C | – | 25.4 nM | 3.3 nM | – | 6 | – | 13.3 to 20 nM | – | – | 1400 nM | 55 | 5.2 nM | 1.5 | 2 - 3
11 | – | 5.36 µM | CC(=O)O[C@H]1C(=O)[C@@]2(C)[C@H]([C@H](OC(=O)c3ccccc3)[C@]3(O)C[C@H](OC(=O)[C@H](O)[C@@H](NC(=O)c4ccccc4)c4ccccc4)C(C)=C1C3(C)C)[C@]1(OC(C)=O)CO[C@@H]1C[C@@H]2O [PACLITAXEL] | 1.9 nM | 1.07 to 6 nM | 1.1 to 1.3 nM | 35 nM | 19.6 - 31.8 | 9800 nM | 19.7 to 34 nM | 5157 | 15 nM | 1280 to 4550 nM | 759 - 1198 | 9 nM | 4 | –
12 | 0.96 | – | CC(=O)O[C@@]12CO[C@@H]1CCOC/C=C\CCO/C1=C(\C)[C@@H]2[C@H](OC(=O)c2ccccc2)[C@]2(O)C[C@H](OC(=O)[C@H](O)[C@@H](NC(=O)c3ccccc3)c3ccccc3)C(C)=C(C1=O)C2(C)C | – | 25.1 nM | 6.7 nM | – | 5.1 | – | 34 nM | – | – | 2190 nM | 87.4 | – | – | –
13 | 0.17 | – | CC(=O)O[C@@]12CO[C@@H]1CCOC/C=C/CCCO/C1=C(\C)[C@@H]2[C@H](OC(=O)c2ccccc2)[C@]2(O)C[C@H](OC(=O)[C@H](O)[C@@H](NC(=O)c3ccccc3)c3ccccc3)C(C)=C(C1=O)C2(C)C | – | – | 126 nM | – | 2.2 | – | 282 nM | – | – | – | – | – | – | –
14 | 0.89 | – | CC(=O)O[C@@]12CO[C@@H]1CCOCCCCO/C1=C(\C)[C@@H]2[C@H](OC(=O)c2ccccc2)[C@]2(O)C[C@H](OC(=O)[C@H](O)[C@@H](NC(=O)c3ccccc3)c3ccccc3)C(C)=C(C1=O)C2(C)C | – | – | 8 nM | – | 6.9 | – | 58 nM | – | – | – | – | – | – | –
15 | 0.96 | – | CC(=O)O[C@@]12CO[C@@H]1CCOC/C=C/CO/C1=C(\C)[C@@H]2[C@H](OC(=O)c2ccccc2)[C@]2(O)C[C@H](OC(=O)[C@H](O)[C@@H](NC(=O)c3ccccc3)c3ccccc3)C(C)=C(C1=O)C2(C)C | – | 22.3 nM | 3.5 nM | – | 7.5 | – | 26 nM | – | – | 1720 nM | 77.1 | – | – | –
16 | 0.23 | – | CC(=O)O[C@@]12CO[C@@H]1CCOC/C=C/CCO/C1=C(\C)[C@@H]2[C@H](OC(=O)c2ccccc2)[C@]2(O)C[C@H](OC(=O)[C@H](O)[C@@H](NC(=O)c3ccccc3)c3ccccc3)C(C)=C(C1=O)C2(C)C | – | – | 27.9 nM | – | 5.7 | – | 158 nM | – | – | – | – | – | – | –
